From US20080200439A1, “Methods and compositions for modulating BK channel activity and vasodilation” (University of Tennessee Research Foundation, priority 2006, published 2008) come the findings set out here.

Several values for one entry are separate records, joined by “and”; a condition that tells them apart may be missing. Identical values can stand only once. Like-named read-outs stand apart in the source and are kept apart here.

The target in assay [1] is cbv1+β1 channels (UniProt Q16558+Q62976). Briefly: Patch-clamp of heteromeric cbv1+β1 channels expressed in Xenopus oocytes. In kind it is cell-based, rat. An excerpt:
cRNA Preparation and Injection into Xenopus Oocytes. Full-length cDNA coding for cbv1-subunits was cloned from rat cerebral artery myocytes by PCR and ligated to the PCR-XL-TOPO cloning vector (Invitrogen Corp., Carlsbad, Calif., United States of America) (Jaggar et al., 2005). cDNA coding for cbv1-subunits was cleaved from the cloning vector by BamHI (Invitrogen Corp., Carlsbad, Calif., United States of America) and XhoI (Promega, Madison, Wis., United States of America) and directly inserted into the pOX vector for expression in Xenopus oocytes. pOX-cbv1 was linearized with NotI (Promega, Madison, Wis., United States of America) and transcribed in vitro using T3 polymerase. Beta,-subunit cDNA inserted into the EcoR I/Sal I sites of the pCl-neo expression vector was linearized with NotI and transcribed in vitro using T7 polymerase. Beta4-subunit cDNA inserted into the pOx vector was linearized by NotI and transcribed using T3 polymerase. The mMessage-mMachine kit (Ambion Inc., Austin, Tex., United States of America) was used for transcription. The pOX vector and the cDNA coding for β1-subunits were generous gifts from Aguan Wei (Washington University, Saint Louis, Mo., United States of America) and Maria Garcia (Merck Research Laboratories, Whitehouse Station, N.J., United States of America).
Oocytes were removed from Xenopus laevis and prepared as described (Dopico et al., 1998). cRNA was dissolved in […] at 5 (cbv1) and 15 (β1 or β4) ng/μl; 1-μl aliquots were stored at −70° C. Cbv1 cRNA was injected alone (2.5 ng/μp) or coinjected with either β1 or β4 (7.5 ng/μl) cRNAs, giving molar ratios ≧6:1 (β:α). cRNA injection (23 nl/oocyte) was conducted using a modified micropipette (Drummond Scientific Co., Broomall, Pa., United States of America). The interval between injection and patch-clamp recordings was 48-72 h.
Electrophysiology. Oocytes were prepared for patch-clamp recordings as described (Dopico et al., 1998). Single-channel and macroscopic currents were recorded from inside-out (I/O) or outside-out (O/O) patches. For experiments with oocytes, both bath and electrode solutions contained (mM) 135 K^+ gluconate, 5 EGTA, 1 MgCl2, 15 HEPES, 10 glucose, pH 7.35. For experiments with myocytes, KCl substituted for K^+ gluconate. In all experiments, free Ca^2+ in solution was adjusted to the desired value by adding CaCl2. In most studies, free Ca^2+ in electrode solution=10 μM. In O/O studies with 17β-estradiol, however, free Ca^2+ in the electrode solution=0.3 μM. Nominal free Ca^2+ was calculated with MaxChelator Sliders (C. Patton, Stanford University, California, United States of America) and validated experimentally using Ca^2+-selective electrodes (Corning Incorporated Science Products Division, Corning, N.Y., United States of America).
Patch-recording electrodes were made as described (Dopico et al., 1998). Immediately before recording, the tip of each electrode was fire-polished on a microforge WPI MF-200 (World Precision Instruments, Inc., Sarasota, Fla., United States of America) to give resistances of 5-9 MD when filled with solution. An agar bridge with gluconate or Cl^− as the main anion (for oocyte and myocyte experiments, respectively) was used as ground electrode. After excision from the cell, the membrane patch was exposed to a stream of bath solution containing each agent at final concentration. Solutions were applied onto the patches using a pressurized system DAD12 (ALA Scientific Instruments, New York, N.Y., United States of America) via a micropipette tip with an internal diameter of 100 μm. Experiments were carried out at room temperature (21° C.).
(§1) Currents were recorded using an EPC8 amplifier (HEKA Electronics, Lambrecht/Pfalz, Germany) at 1 kHz using a low-pass, eight-pole Bessel filter 902LPF (Frequency Devices, Haverhill, Mass., United States of America). […]

For assay [2], the target named is native BK channels in rat cerebral artery myocytes (Rattus norvegicus, UniProt P97678+Q62976). Briefly: Inside-out patch-clamp of native BK channels in freshly isolated cerebral artery myocytes. Type of assay: cell-based. Particulars: I/O patches, free Ca2+i 3 μM. The protocol: Myocyte Isolation. Basilar and middle cerebral arteries were dissected out from each brain under a stereozoom microscope (Nikon C-PS, Tokio, Japan) and placed into ice-cold “dissociation medium” (DM) (mM): 0.16 CaCl2, 0.49 EDTA, 10 HEPES, 5 KCl, 0.5 KH2PO4, 2 MgCl2, 110 NaCl, 0.5 NaH2PO4, 10 NaHCO3, 0.02 phenol red, 10 taurine, 10 glucose. Each artery was cut into 1-2 mm long rings (˜30 rings/experiment). Rings were put in 3 ml DM containing 0.03% papain, 0.05% bovine serum albumin (BSA) and 0.004% dithiothreitol (DTT) for 15 min at 37° C. in a polypropylene centrifuge tube, and then incubated in a shaking water bath at 37° C. and 60 oscillations/min. for 15 min. The prepartion was then centrifuged several times as described (Liu et al., 2004). […]
(§2) Electrophysiology. […] Single-channel and macroscopic currents were recorded from inside-out (I/O) or outside-out (O/O) patches. […] Nominal free Ca^2+ was calculated with MaxChelator Sliders (C. Patton, Stanford University, California, United States of America) and validated experimentally using Ca^2+-selective electrodes (Corning Incorporated Science Products Division, Corning, N.Y., United States of America). […]
as §1
For orientation: The patch-clamp technique gives a direct electrical read-out from membranes.

The target in assay [3] is T1, cbv1+β4 channels (Rattus norvegicus, UniProt Q62976).
T1 construct: Full-length cDNA coding for cbv1-subunits was cloned from rat cerebral artery myocytes by PCR; expressed in transfected cells; host or cells: Xenopus laevis oocytes (cRNA co-injection)
Briefly: Patch-clamp of cbv1+β4 channels expressed in Xenopus oocytes. In kind it is cell-based.
Description: cRNA Preparation and Injection into Xenopus Oocytes. Full-length cDNA coding for cbv1-subunits was cloned from rat cerebral artery myocytes by PCR and ligated to the PCR-XL-TOPO cloning vector (Invitrogen Corp., Carlsbad, Calif., United States of America) (Jaggar et al., 2005). cDNA coding for cbv1-subunits was cleaved from the cloning vector by BamHI (Invitrogen Corp., Carlsbad, Calif., United States of America) and XhoI (Promega, Madison, Wis., United States of America) and directly inserted into the pOX vector for expression in Xenopus oocytes. pOX-cbv1 was linearized with NotI (Promega, Madison, Wis., United States of America) and transcribed in vitro using T3 polymerase. […]
as §2, §1

Sequence of cbv1+β1 channels (Q62976 1-1148 isoform Q62976-2): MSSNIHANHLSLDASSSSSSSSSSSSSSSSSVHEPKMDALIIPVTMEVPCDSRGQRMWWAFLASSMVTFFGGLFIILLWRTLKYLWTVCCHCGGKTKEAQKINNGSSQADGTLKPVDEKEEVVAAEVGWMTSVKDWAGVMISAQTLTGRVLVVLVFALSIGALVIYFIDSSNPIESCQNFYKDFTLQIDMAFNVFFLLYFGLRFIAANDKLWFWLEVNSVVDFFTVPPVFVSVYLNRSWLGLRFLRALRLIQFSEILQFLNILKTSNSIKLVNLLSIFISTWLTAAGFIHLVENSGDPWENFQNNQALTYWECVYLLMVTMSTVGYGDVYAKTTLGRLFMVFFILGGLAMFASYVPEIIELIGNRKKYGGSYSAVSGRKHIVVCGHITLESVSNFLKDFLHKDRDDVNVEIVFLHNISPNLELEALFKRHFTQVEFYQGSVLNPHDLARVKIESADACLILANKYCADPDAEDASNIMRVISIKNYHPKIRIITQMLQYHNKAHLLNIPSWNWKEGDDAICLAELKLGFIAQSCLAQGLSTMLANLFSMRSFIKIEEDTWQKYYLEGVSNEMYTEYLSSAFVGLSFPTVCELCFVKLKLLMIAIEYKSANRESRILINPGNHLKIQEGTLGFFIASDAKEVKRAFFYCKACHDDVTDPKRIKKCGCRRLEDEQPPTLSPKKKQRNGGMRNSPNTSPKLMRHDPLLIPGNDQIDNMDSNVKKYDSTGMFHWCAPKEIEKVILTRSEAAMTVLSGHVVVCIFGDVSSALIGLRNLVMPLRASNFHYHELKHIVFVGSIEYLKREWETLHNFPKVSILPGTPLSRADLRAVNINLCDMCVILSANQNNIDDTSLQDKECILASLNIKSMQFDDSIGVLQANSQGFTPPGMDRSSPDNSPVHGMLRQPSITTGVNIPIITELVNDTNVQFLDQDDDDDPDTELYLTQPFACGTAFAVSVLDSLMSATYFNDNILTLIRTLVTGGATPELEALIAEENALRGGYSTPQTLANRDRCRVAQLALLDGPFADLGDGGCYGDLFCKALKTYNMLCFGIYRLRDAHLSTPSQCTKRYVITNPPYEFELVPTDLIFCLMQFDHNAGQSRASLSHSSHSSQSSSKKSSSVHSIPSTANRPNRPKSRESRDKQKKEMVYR
Sequence of cbv1+β1 channels (Q16558 whole entry): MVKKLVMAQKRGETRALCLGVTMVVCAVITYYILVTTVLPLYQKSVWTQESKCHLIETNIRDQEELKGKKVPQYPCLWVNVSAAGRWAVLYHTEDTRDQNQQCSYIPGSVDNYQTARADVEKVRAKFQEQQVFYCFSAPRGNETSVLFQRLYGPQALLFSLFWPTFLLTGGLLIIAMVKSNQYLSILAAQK
T1 sequence (Q62976 1-1148 isoform Q62976-2): as the sequence (Q62976 1-1148 isoform Q62976-2) above
T1 sequence (Q86W47 whole entry partner): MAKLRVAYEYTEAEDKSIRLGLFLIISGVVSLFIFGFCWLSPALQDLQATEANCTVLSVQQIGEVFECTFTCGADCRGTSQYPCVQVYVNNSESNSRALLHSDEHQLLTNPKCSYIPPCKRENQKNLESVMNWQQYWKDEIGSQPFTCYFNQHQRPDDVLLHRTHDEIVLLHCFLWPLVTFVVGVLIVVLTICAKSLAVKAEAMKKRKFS
Sequence of native BK channels in rat cerebral artery myocytes (Q62976 1-1148 isoform Q62976-2): as the sequence (Q62976 1-1148 isoform Q62976-2) above
Sequence of native BK channels in rat cerebral artery myocytes (P97678 whole entry): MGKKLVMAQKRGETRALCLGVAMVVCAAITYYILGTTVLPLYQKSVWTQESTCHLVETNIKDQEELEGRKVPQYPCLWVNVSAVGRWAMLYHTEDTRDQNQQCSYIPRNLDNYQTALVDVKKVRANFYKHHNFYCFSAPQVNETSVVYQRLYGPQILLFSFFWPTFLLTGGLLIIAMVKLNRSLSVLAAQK

The EC50 is the concentration giving half of the maximal effect. With `C[C@H](CCC(=O)O)[C@H]1CC[C@H]2[C@@H]3CC[C@@H]4C[C@H](O)CC[C@]4(C)[C@H]3CC[C@]12C` [LC, 5β-cholanic acid 3α-ol], in assay [1] (150 μM, 0.1 μM Ca2+), the “LC-activation (as a percentage of NPo in vehicle)” value amounted to 139.9±32.9%. For the same compound, in assay [1] (150 μM, 1 μM Ca2+, read-out: LC-activation (as a percentage of NPo in vehicle), maximal effect), the Emax at 150 µM was 244 ± 58.9%. Also, the Percent of control at 150 µM is 172 ± 9.5% in assay [1] (150 μM, 30 μM Ca2+i, read-out: NPo in LC (% of control)); 41% in assay [1] (150 μM, patches with N=1, read-out: Channel mean closed time (% of control)); 137% in assay [1] (150 μM, patches with N=1, read-out: Channel mean open time (% of control)). For the same compound, in assay [1] (150 μM, FIG. 4B), the “Decrease in mean close time” value is listed as −60%. Further, in assay [1] (150 μM, single-channel I/O patch (N=1), +20 mV, Ca2+i 10 μM), the “Increase in Po” value is reported as 320%. In addition, the Emax in assay [1] (I/O patches, Ca2+i 10 μM, read-out: NPo at Emax (% of control)) was 290 ± 45%; in assay [2] (read-out: NPo at Emax (% of control)), 350%. The half-maximal effective concentration (EC50) in assay [1] (I/O patches, Ca2+i 10 μM, ±20 mV, read-out: EC50 for increase in NPo) was 43.5 µM and 46 µM; in assay [2] (Vm −40 to −30 mV, read-out: EC50 for increase in NPo) it was 46 ± 6 µM. The remaining activity at 150 µM in assay [3] (150 μM, I/O patches, conditions identical to cbv1 and cbv1+β1, read-out: NPo (% of control)) is 109 ± 11%.

“iberiotoxin (QFTDVDCSVSKECWSVCKDLFGVDRGKCMGKKCRCYQ; UniProt P24663 1-37, looked up) [Ibtx, reference compound]”: in assay [3] (55 nM, protracted exposure), the “Block of channel NPo” value was “resistance to block”.
